Measured values taken from BindingDB's records for doi:10.1021/ja062999h (The Scripps Research Institute, 2006).

Key:
Settings in all cases: pH 7.4; 22 °C
[1] = target: T1, Monoacylglycerol lipase ABHD6 (Mus musculus, UniProt Q8R2Y0); test: Serine Hydrolase Activity Assay
T1 sequence (Q8R2Y0 whole entry): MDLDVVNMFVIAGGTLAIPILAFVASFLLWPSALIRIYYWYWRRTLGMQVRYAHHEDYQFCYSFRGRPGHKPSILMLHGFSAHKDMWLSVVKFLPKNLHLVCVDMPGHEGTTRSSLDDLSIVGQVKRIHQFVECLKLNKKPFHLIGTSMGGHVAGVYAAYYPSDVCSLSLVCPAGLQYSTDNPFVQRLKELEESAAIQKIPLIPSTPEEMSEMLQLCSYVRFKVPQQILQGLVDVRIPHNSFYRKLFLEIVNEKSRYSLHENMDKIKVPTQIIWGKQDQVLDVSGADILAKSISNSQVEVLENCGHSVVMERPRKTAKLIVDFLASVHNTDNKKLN
From the text: (§1) Serine hydrolase targets were recombinantly expressed in COS-7 cells by transient transfection. IC50 values were obtained by competitive ABPP with FP-rhodamine.

[2] = target: T2, Neutral cholesterol ester hydrolase 1 (Mus musculus, UniProt Q8BLF1); test: Serine Hydrolase Activity Assay
T2 sequence (Q8BLF1 whole entry): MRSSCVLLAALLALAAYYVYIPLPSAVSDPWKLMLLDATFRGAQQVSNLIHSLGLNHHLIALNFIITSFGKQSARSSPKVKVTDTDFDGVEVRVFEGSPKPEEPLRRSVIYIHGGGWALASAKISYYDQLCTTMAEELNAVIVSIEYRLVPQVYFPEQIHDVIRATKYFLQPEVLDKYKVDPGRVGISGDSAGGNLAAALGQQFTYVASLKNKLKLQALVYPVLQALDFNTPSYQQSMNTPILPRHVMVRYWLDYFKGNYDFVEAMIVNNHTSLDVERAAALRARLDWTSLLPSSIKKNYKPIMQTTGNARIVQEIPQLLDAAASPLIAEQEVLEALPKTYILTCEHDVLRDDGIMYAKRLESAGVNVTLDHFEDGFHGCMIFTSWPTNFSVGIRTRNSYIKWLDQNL
From the text: as §1

Monoglyceride lipase = target: T3, Monoglyceride lipase (Mus musculus, UniProt O35678); test: Serine Hydrolase Activity Assay
T3 sequence (O35678 whole entry): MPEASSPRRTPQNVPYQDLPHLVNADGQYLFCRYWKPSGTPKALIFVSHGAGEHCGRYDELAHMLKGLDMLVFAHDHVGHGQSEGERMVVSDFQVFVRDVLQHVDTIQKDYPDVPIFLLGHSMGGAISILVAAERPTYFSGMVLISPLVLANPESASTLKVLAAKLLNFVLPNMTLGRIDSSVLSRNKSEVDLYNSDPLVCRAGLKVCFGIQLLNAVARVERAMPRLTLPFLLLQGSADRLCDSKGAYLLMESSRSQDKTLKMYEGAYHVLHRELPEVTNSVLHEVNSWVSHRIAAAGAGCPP
From the text: as §1

[3] = target: T4, Fatty-acid amide hydrolase 1 (Mus musculus, UniProt O08914); test: FAAH Competitive ABPP Using FP-Rhodamine
T4 sequence (O08914 whole entry): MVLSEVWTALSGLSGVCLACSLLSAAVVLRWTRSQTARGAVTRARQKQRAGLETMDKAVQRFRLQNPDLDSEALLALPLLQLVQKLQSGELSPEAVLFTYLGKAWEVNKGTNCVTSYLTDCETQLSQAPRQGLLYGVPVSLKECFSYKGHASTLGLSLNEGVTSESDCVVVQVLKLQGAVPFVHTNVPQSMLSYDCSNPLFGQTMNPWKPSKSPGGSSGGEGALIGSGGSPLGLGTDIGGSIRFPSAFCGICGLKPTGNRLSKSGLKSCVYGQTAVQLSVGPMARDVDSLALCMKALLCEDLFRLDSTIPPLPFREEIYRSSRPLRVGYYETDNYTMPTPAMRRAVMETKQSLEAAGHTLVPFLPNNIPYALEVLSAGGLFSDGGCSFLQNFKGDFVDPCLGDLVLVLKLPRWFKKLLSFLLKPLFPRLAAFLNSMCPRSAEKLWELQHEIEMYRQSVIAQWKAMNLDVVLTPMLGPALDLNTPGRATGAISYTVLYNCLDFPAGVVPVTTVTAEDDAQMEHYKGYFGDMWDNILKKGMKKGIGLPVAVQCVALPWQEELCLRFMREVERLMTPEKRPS
Protocol: Mouse brain membrane proteomes were preincubated with varying concentrations of inhibitors for 10 min prior to the addition of a rhodamine-tagged fluorophosphonate (FP-rhodamine). Reactions were quenched after 10 min, subjected to SDS-PAGE, and visualized in-gel using a flatbed fluorescence scanner. Labeled proteins were quantified by measuring integrated band intensities. Dose response curves obtained from three trials at each inhibitor concentration were fit using Prism software (GraphPad) to

For CN(C)C(=O)n1nnnc1Cc1ccc(-c2ccccc2)cc1 [N,N-dimethyl-5-[(4-phenylphenyl)methyl]-1H-1,2,3,4-tetrazole-1-carboxamide], the IC50 [1] was 0.09 nM, the IC50 [2] was 8.2 nM and the IC50 (Monoglyceride lipase) was 5.3 nM. For the same molecule, the IC50 [3] was 13 nM.
